Results: patent US8410094B2, “Amide compounds, their pharmaceutical compositions, their preparation method and their uses” (Shanghai Institute of Materia Medica, Chinese Academy of …, priority 2008, dated 2013)

What follows are compounds tested against T1, CCR5 (Homo sapiens, UniProt P51681) (assay: Inhibition of CCR5: [35S]GTPγS binding assays (filtration, SPA-WGA) and calcium influx assay, 10 nM RANTES, CHO-CCR5). Details: inhibition of GTPγS binding induced by 10 nM RANTES, CHO-CCR5.
T1 construct: expressed in transfected cells
T1 sequence (P51681 whole entry): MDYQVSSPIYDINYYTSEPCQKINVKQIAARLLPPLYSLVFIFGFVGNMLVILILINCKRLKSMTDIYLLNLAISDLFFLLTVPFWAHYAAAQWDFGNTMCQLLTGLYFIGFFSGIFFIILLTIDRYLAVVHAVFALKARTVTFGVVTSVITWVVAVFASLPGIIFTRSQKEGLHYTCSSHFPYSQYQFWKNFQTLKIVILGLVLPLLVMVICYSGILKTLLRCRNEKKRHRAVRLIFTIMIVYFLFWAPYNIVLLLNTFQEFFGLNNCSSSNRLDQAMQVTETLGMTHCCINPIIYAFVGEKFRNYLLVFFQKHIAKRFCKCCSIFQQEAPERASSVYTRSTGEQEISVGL
Type: biochemical
Protocol: CCR5 belongs to G-Protein-Coupled Receptor (GPCR) family. The developing technology of GPCR-based drugs have been well-developed, among them, the experimental techniques such as ligand-receptor binding assay, GTPγS binding assay and Ca^2+ flux assay have been widely used in drug-screening related to chemokine receptors. The inhibitory activities of the compounds according to the present invention against CCR5 are measured by three methods, i.e., [^35S]GTPγS filter binding assay, SPA-WGA-based [^35S]GTPγS binding assay and calcium influx assay. At the same time, the antiviral activities in cell of the compounds according to the present invention are evaluated by using two kinds HIV-1 subtypes: H4DA5 cell model and PBMC system virus replication model.
A. [^35S]GTPγS Binding Assay
After binding with an agonist, CCR5 experiences a conformation change such that CCR5 interacts with G protein so as to active the G protein. G protein is a tripolymer composed of α-subunit and βγ-subunit. Since the ability of α-subunit binding to GTP depends on the interaction of CCR5 with the agonist, the ability of an agonist for activating CCR5 can be reflected by determining the amount of GTP binding to α-subunit. In a GTPγS binding assay, a ^35S-labeled GTP analogue GTPγS, which can bind with an activated α-subunit without being hydrolyzed, is used to replace GTP in order for eliminating the defect that the amount of GTP binding to G protein can not exactly reflect the activation of CCR5 due to the hydrolysis of GTO by GTPase and for convenience of detection. So, α-subunit binds with GDP when CCR5 is not activated, and after the activation of CCR5, α-subunit binds with GTPγS such that GTPγS irreversible binds to α-subunit. Therefore, the amount of [^35S]-GTPγS binding to α-subunit could reflect the level of CCR5 activated by an agonist. The ability of the agonist for activating CCR5 will decrease when an antagonist is added.
Such experiment has been referred to as GTPγS filtration assay in which [^35S]-GTPγS bound with the free G protein could be separated by membrane filtration.
Alternatively, SPA (Scintillation Proximity Assay) technique can be used to detect the [^35S]-GTPγS bound to G protein, which is called SPA-WGA-based [35S]GTPγS binding assay. The principle of SPA technique is as follows. Sub-atomic particles released during the decay of radioactive atoms, for example β-ray (electron), can excite microspheres at a sufficiently close distance to emit light so as to be detected by a Scintillation Counter. In an aqueous solution, most of the energy of these rays is absorbed by the solvent, and the traveling distance of these rays is limited.
The activation of G protein by CCR5 is determined by the following experiments.
CHO (Chinese hamster ovary cell) permanent cell line expressing CCR5 (CHO-CCR5) (a cell line constructed by Shanghai Targetdrug Ltd.) was lysed with a lysis buffer (5 mM Tris-HCl, pH 7.5, 5 mM EDTA and 5 mM EGTA) and then centrifugated at 15,000×g for 10 min to obtain cell membrane. After the cell membrane was resuspended in a reaction buffer (5 mM Tris-HCl, pH 7.5, 5 mM MgCl2, 1 mM EGTA, 100 mM NaCl), the protein concentration was determined using Bioford Protein Assay Kit manufactured by Bio-Rad Laboratories Inc. Subsequently, GTPγS binding assay was performed in the reaction buffer, wherein the reaction system was 100 μL containing 10 μg membrane protein, 40 μM GDP and 0.5 nM [^35S]-GTPγS (1200 Ci/mmol). After the compound to be tested (the compound was first dissolved in DMSO and then diluted in gradient with the reaction buffer according to the specific situation, wherein the final concentration of DMSO was 1% (v/v) in the whole reaction system) was added and shaken to mix homogeneously, the reaction tube was incubated at 30° C. for 1 hour. After the reaction finished, the tube was placed on ice, and the reaction mixture was diluted with PBS to quench the reaction and filtered under reduced pressure with a GF/C filter membrane. […]

| Compound | IC50 [nM] |
| --- | --- |
| 1-acetyl-N-(3-chloro-4-methylphenyl)-N-(3-(3-exo-(2-(4-(pyrrolidine-1-sulfonyl)phenyl)acetamido)-8-azabicyclo[3.2.1]oct-8-yl)propyl)-4-piperidinylcarboxamide [Compound 7i] | 2.97 |
| CC(=O)N1CCC(C(=O)N(CCCN2[C@@H]3CC[C@H]2C[C@H](NC(=O)Cc2ccc(C(F)(F)F)cc2)C3)c2ccc(C)c(Cl)c2)CC1 [Compound 7d, 1-acetyl-N-(3-chloro-4-methylphenyl)-N-(3-(3-exo-(2-(4-(trifluoromethyl)phenyl)acetamido)-8-azabicyclo[3.2.1]oct-8-yl)propyl)-4-piperidinylcarboxamide] | 49.4 |
| CC(=O)N1CCC(C(=O)N(CCCN2[C@@H]3CC[C@H]2C[C@H](NC(=O)Cc2ccc(S(=O)(=O)N(C)C)cc2)C3)c2ccc(C)c(Cl)c2)CC1 [Compound 7j, 1-acetyl-N-(3-chloro-4-methylphenyl)-N-(3-(3-exo-(2-(4-(N,N-dimethylsulphonyl)phenyl)acetamido)-8-azadicyclo[3.2.1]oct-8-yl)propyl)-4-piperidinylcarboxamide] | 3.08 |
| CC(=O)N1CCC(C(=O)N(CCCN2[C@@H]3CC[C@H]2C[C@H](NC(=O)Cc2ccc(S(C)(=O)=O)cc2)C3)c2ccc(C)c(Cl)c2)CC1 [Compound 7k, 1-acetyl-N-(3-chloro-4-methylphenyl)-N-(3-(3-exo-(2-(4-(methylsulphonyl)phenyl)acetamido)-8-azabicyclo[3.2.1]oct-8-yl)propyl)-4-piperidinylcarboxamide] | 11.6 |
| CC(=O)N1CCC(C(=O)N(CCCN2[C@@H]3CC[C@H]2C[C@H](NC(=O)Cc2ccc(S(=O)(=O)N4CCOCC4)cc2)C3)c2ccc(C)c(Cl)c2)CC1 [Compound 7l, 1-acetyl-N-(3-chloro-4-methylphenyl)-N-(3-(3-exo-(2-(4-(morpholinosulfonyl)phenyl)acetamido)-8-azabicyclo[3.2.1]oct-8-yl)propyl)-4-piperidinylcarboxamide] | 3.46 |
| CC(=O)N1CCC(C(=O)N(CCCN2[C@@H]3CC[C@H]2C[C@H](NC(=O)Cc2ccc(S(=O)(=O)NC(C)(C)C)cc2)C3)c2ccc(C)c(Cl)c2)CC1 [Compound 7m, 1-acetyl-N-(3-(3-exo-(2-(4-(N-tert-butylsulphonyl)phenyl)acetamido)-8-azabicyclo[3.2.1]oct-8-yl)propyl)-N-(3-chloro-4-methylphenyl)-4-piperidinylcarboxamide] | 7.54 |
| CC(=O)N1CCC(C(=O)N(CCCN2[C@@H]3CC[C@H]2C[C@H](NC(=O)Cc2cccc4ccccc24)C3)c2ccc(C)c(Cl)c2)CC1 [Compound 7n, 1-acetyl-N-(3-chloro-4-methylphenyl)-N-(3-(3-exo-(2-(1-naphthyl)acetamido)-8-azabicyclo[3.2.1]oct-8-yl)propyl)-4-piperidinylcarboxamide] | 4.75 |
| CC(=O)N1CCC(C(=O)N(CCCN2[C@@H]3CC[C@H]2C[C@H](NC(=O)Cc2ccc4ccccc4c2)C3)c2ccc(C)c(Cl)c2)CC1 [Compound 7o, 1-acetyl-N-(3-chloro-4-methylphenyl)-N-(3-(3-exo-(2-(2-naphthyl)acetamido)-8-azabicyclo[3.2.1]-oct-8-yl)propyl)-4-piperidinylcarboxamide] | 697 |
| CC(=O)N1CCC(C(=O)N(CCCN2C3CCC2CC(NC(=O)C(O)c2ccccc2)C3)c2ccc(C)c(Cl)c2)CC1 (stereo not drawn) [Compound 7p, 1-acetyl-N-(3-chloro-4-methylphenyl)-N-(3-(3-exo-(2-hydroxyl-2-phenylacetamido)-8-azabicyclo[3.2.1]oct-8-yl)propyl)-4-piperidinylcarboxamide] | 51.5 |
| COc1cc(CC(=O)N[C@@H]2C[C@H]3CC[C@@H](C2)N3CCCN(C(=O)C2CCN(C(C)=O)CC2)c2ccc(C)c(Cl)c2)cc(OC)c1OC [Compound 7r, 1-acetyl-N-(3-chloro-4-methylphenyl)-N-(3-(3-exo-(2-(3,4,5-trimethoxylphenyl)acetamido)-8-azabicyclo[3.2.1]oct-8-yl)propyl)-4-piperidinylcarboxamide] | 20.3 |

More lines, now with the values ahead:

| IC50 [nM] | Compound |
| --- | --- |
| 31.1 | CC(=O)N1CCC(C(=O)N(CCCN2[C@@H]3CC[C@H]2C[C@H](NC(=O)Cc2ccc(F)cc2)C3)c2ccc(C)c(Cl)c2)CC1 [Compound 7b, 1-acetyl-N-(3-chloro-4-methylphenyl)-N-(3-(3-exo-(2-(4-fluorphenyl)acetamido)-8-azabicyclo[3.2.1]oct-8-yl)propyl)-4-piperidinylcarboxamide] |
| 15.1 | CC(=O)N1CCC(C(=O)N(CCCN2[C@@H]3CC[C@H]2C[C@H](NC(=O)Cc2ccc(Cl)cc2)C3)c2ccc(C)c(Cl)c2)CC1 [Compound 7c, 1-acetyl-N-(3-chloro-4-methylphenyl)-N-(3-(3-exo-(2-(4-chlorphenyl)acetamido)-8-azabicyclo[3.2.1]oct-8-yl)propyl)-4-piperidinylcarboxamide] |
| 209 | CC(=O)N1CCC(C(=O)N(CCCN2C3CCC2CC(NC(=O)CC24CC5CC(CC(C5)C2)C4)C3)c2ccc(C)c(Cl)c2)CC1 (stereo not drawn) [Compound 7e, 1-acetyl-N-(3-chloro-4-methylphenyl)-N-(3-(3-exo-(2-(1-adamantyl)acetamido)-8-azabicyclo[3.2.1]oct-8-yl)propyl)-4-piperidinylcarboxamide] |
| 20 | CC(=O)N1CCC(C(=O)N(CCCN2[C@@H]3CC[C@H]2C[C@H](NC(=O)Cc2ccc([N+](=O)[O-])cc2)C3)c2ccc(C)c(Cl)c2)CC1 [Compound 7f, 1-acetyl-N-(3-chloro-4-methylphenyl)-N-(3-(3-exo-(2-(4-nitrophenyl)acetamido)-8-azabicyclo[3.2.1]oct-8-yl)propyl)-4-piperidinylcarboxamide] |
| 48.2 | CC(=O)N1CCC(C(=O)N(CCCN2[C@@H]3CC[C@H]2C[C@H](NC(=O)Cc2ccc(O)cc2)C3)c2ccc(C)c(Cl)c2)CC1 [Compound 7g, 1-acetyl-N-(3-chloro-4-methylphenyl)-N-(3-(3-exo-(2-(4-hydroxyphenyl)acetamido)-8-azabicyclo[3.2.1]oct-8-yl)propyl)-4-piperidinylcarboxamide] |
| 4.89 | CC(=O)N1CCC(C(=O)N(CCCN2[C@@H]3CC[C@H]2C[C@H](NC(=O)Cc2ccc(Cl)c(Cl)c2)C3)c2ccc(C)c(Cl)c2)CC1 [Compound 7h, 1-acetyl-N-(3-chloro-4-methylphenyl)-N-(3-(3-exo-(2-(3,4-dichlorophenyl)acetamido)-8-azabicyclo[3.2.1]oct-8-yl)propyl)-4-piperidinylcarboxamide] |
| 82 | CC(=O)N1CCC(C(=O)N(CCCN2[C@@H]3CC[C@H]2C[C@H](NC(=O)Cc2c[nH]c4ccccc24)C3)c2ccc(C)c(Cl)c2)CC1 [Compound 7q, N-(3-(3-exo-(2-(3-indolyl)acetamido)-8-azabicyclo[3.2.1]oct-8-yl)propyl)-1-acetyl-N-(3-chloro-4-methylphenyl)-4-piperidinylcarboxamide] |

Same assay, conditions: read-out: inhibition against CCR5 @30 nM

| Compound | inhibition at 0.03 µM [%] |
| --- | --- |
| CC(=O)N1CCC(C(=O)N(CCCN2C3CCC2CC(NC(=O)Cc2ccccc2)C3)c2ccc(C)c(Cl)c2)CC1 (stereo not drawn) [Compound 7a, 1-acetyl-N-(3-chloro-4-methylphenyl)-N-(3-(3-exo-(2-phenylacetamido)-8-azabicyclo[3.2.1]oct-8-yl)propyl)-4-piperidinylcarboxamide] | 26.2 |

Same assay, conditions: read-out: inhibition against CCR5 @300 nM

| Compound | inhibition at 0.3 µM [%] |
| --- | --- |
| CC(=O)N1CCC(C(=O)N(CCCN2C3CCC2CC(NC(=O)Cc2ccccc2)C3)c2ccc(C)c(Cl)c2)CC1 (stereo not drawn) [Compound 7a, 1-acetyl-N-(3-chloro-4-methylphenyl)-N-(3-(3-exo-(2-phenylacetamido)-8-azabicyclo[3.2.1]oct-8-yl)propyl)-4-piperidinylcarboxamide] | 64.6 |
